In brackets after ≈: the same amount, converted by molar mass. Read-outs that look alike come from different tables or passages of the source. Bounds are passed on as bounds.

Series [1] concerns rabbit. Conditions: in vivo; cited from earlier work.
Series [2] concerns rat. The following applies: cited from earlier work.
Series [3] relates to rat. The following applies: Trinity 1.69SC MSDS; cited from earlier work.
The subject of another series is honey bee. The following applies: cited from earlier work.
The next series has as its system Lepomis macrochirus. The following applies: cited from earlier work.
The subject of a further series is anthracnose (C. cereale). Nature of the series: Field efficacy test, control of anthracnose on putting green turf. The class given is in vivo, 'Dominant Plus' creeping bentgrass. The following applies: Trinity 1.69SC 0.32 ml/m^2, 14 d interval; for Turf quality: 1-to-9 scale (9 = best), anthracnose trial.
A further series deals with Oncorhynchus mykiss. The following applies: cited from earlier work.
A further series has as its system guinea pig. The following applies: in vivo; cited from earlier work.
Series [4] has as its system rabbit. The following applies: in vivo; cited from earlier work. The source holds these as a separate data set.
The next series has as its system green algae. Conditions: in vivo; cited from earlier work.
The subject of a further series is Sclerotinia homoeocarpa. The series is described as follows: In vitro sensitivity assay (radial growth on fungicide-amended PDA). The class given is cell-based. Conditions: Clarireedia homoeocarpa. The protocol: (§1) Three isolates of S. homoeocarpa and two isolates of C. cereale were selected to evaluate ningnanmycin (Ningnanmycin 10WP, Deqiang Biological Co., LTD. Harbin, Helongjiang, China) in vitro activities using 5 three-fold dilutions from 0.81 to 0.01 μg a.i./ml. […] Based on preliminary experiments, five dilutions of triticonazole were used, ranging from 0.81 to 0.01 μg a.i/ml for isolates of S. homoeocarpa and from 6.25 to 0.01 μg a.i./ml for isolates of C. cereale. All isolates were prepared for long-term storage on pieces of dried filter paper maintained at −80° C. Filter paper sections containing each isolate were removed from −80° C. storage and placed on PDA amended with 0.05 μg/ml each of chloramphenicol, streptomycin, and tetracycline (PDA+++). After 3 days, mycelium-containing plugs (1×1 cm) were transferred to water agar for another 2 days. Then, water agar plugs (0.45 cm diameter) were cut from the periphery of the colony using a cork borer and placed on the center of Petri dishes containing non-amended PDA and PDA amended with the serial concentrations of each fungicide with three replicates per isolate. Radial growth was measured after three days (72 h) incubation at room temperature for isolates of S. homoeocarpa and seven days for isolates of C. cereale. Relative Growth (RG) was calculated by dividing colony diameter on amended PDA by that on the non-amended PDA. EC50 values were then calculated using the method described by Secor et al. (Fungicide resistance assays for fungal plant pathogens. Methods Mol Biol. 835:385-392, 2012). The in vitro sensitivity assay repeated twice and EC50 value of each isolates was determined as the mean of EC50 values from two assays.

For another series, the system named is Colletotrichum cereale. Described as above. The class given is cell-based. The protocol:
as §1

Consider `CC1(C)CCC(=Cc2ccc(Cl)cc2)C1(O)Cn1cncn1` (stereo not shown) [triticonazole, reference compound], for which the Irritation to skin entry in the series with rabbit [1] was “moderately irritating”. Further, in the series on rat [2], the “Acute toxicity Dermal LD50” value is recorded as >2,000/mg/kg. For the same compound, the “Acute toxicity Oral LD50” value in the series with rat [3] is reported as >5,000 mg/kg. Also, the “Non-mammals, honey bee” value in the series on honey bee is given as 1.87 μg/bee. Further, the “Fish LC50 (96 h)” value in the series with Lepomis macrochirus was >8.9 mg/L (Lepomis; with Oncorhynchus mykiss, greater than 3.6 µg/mL. The Turf quality in the series on anthracnose (C. cereale) (Aug. 8, 2010) came to 5; in the series with anthracnose (C. cereale) (Aug. 15, 2010), 5. The “Anthracnose severity (%)” value was 17% in the series with anthracnose (C. cereale) (Aug. 1, 2011); 3% in the series with anthracnose (C. cereale) (Aug. 8, 2011); 12% in the series on anthracnose (C. cereale) (Aug. 15, 2011); 16% with anthracnose (C. cereale) (Jul. 25, 2011). In addition, in the series on guinea pig, the Sensitization entry is “no”. Besides, in the series with rabbit [4], the Irritation to eye result was “slightly irritating”. For the same compound, in the series on green algae, the “Aquatic plants EC50” value was >1 mg/L (96 h). The EC50 in the series on Sclerotinia homoeocarpa (72 h, isolate 761SHME, radial growth after 72 h, mean of two assays, Ningnanmycin 10WP / technical triticonazole, μg a.i./ml, read-out: EC50) came to 0.05 µg/mL (≈ 0.157 µM); with Sclerotinia homoeocarpa (72 h, isolate LWC 27, radial growth after 72 h, mean of two assays, read-out: EC50), 0.06 µg/mL (≈ 0.189 µM); with Sclerotinia homoeocarpa (72 h, isolate PST4, radial growth after 72 h, mean of two assays, read-out: EC50), 0.03 µg/mL (≈ 0.0944 µM); in the series with Sclerotinia homoeocarpa (mean of three isolates, read-out: mean EC50) it was 0.05 µg/mL (≈ 0.157 µM); in the series with Colletotrichum cereale (168 h, isolate ABR1, radial growth after seven days, mean of two assays, read-out: EC50) it was 1.24 µg/mL (≈ 3.9 µM); in the series on Colletotrichum cereale (168 h, isolate ABR12, radial growth after seven days, mean of two assays, read-out: EC50), 0.72 µg/mL (≈ 2.27 µM). In addition, in the series with Colletotrichum cereale (mean of two isolates, read-out: mean EC50), the concentration giving a half-maximal response (EC50) stood at 0.98 µg/mL (≈ 3.08 µM).

By EC50 is commonly meant the concentration giving half of the maximal effect.

The values are drawn from patent US20130324493A1, “COMPOSITIONS COMPRISING NINGNANMYCIN AND USES THEREFOR” (North Carolina State University, priority 2012, published 2013).
